{"source": "patent US11224234B2", "about": "“Functional chocolate” (IMMD SP. Z.O.O., priority 2016, dated 2022)", "test": "Pharmacokinetics of trans-Resveratrol in human serum, crossover clinical study", "format": "in vivo", "conditions": "single ingestion", "procedure": "This was a crossover clinical study on 6 volunteers of 35-65 years old, 3 women and 3 men. It was a multi-arm trial with one-week interval between each arm. Prior to every experiment volunteers were asked not to consume food, which may contain fruit, vegetable or grain polyphenols and tomato-based products. In the morning of the experiment volunteers were asked to abstain from any food and drink only water. The serum of the vein blood was analysed. […] Firstly, a sample was collected before ingesting of a product, then every hour for 4 hours after ingestion. To assess the pharmacokinetics (PK) of t-RSV of our dark and milk chocolate with embedded bilberry and aronia extracts, we undertook a crossover clinical study with the same group of volunteers. On top of these we added into this crossover study a few more groups with Nutella spread where chocolate is only a small ingredient. The design of the study and the sample collection was the same as in the glucose postprandial study described above."}
{"molecule": "Oc1ccc(/C=C/c2cc(O)cc(O)c2)cc1", "note": "[t-RSV capsule, trans-Resveratrol]", "values": [{"measurement": "t-RSV AUC 0-4 hours", "value": "105 to 380", "unit": "ng/mL"}, {"measurement": "t-RSV Max", "value": "100 to 207", "unit": "ng/mL"}]}
